In patent publication US20210386367A1, “DEVICES AND SYSTEMS FOR GASTROINTESTINAL MICROBIOME DETECTION AND MANIPULATION” (Progenity, Inc., priority 2018, published 2021):
Values after ≈ are worked out from the molar mass of the structure shown.

Tests used:
Format in all cases: cell-based
Enterococcus faecalis = test: Broth microdilution MIC, 50 clinical isolates
Experimental: (§1) Minimal inhibitory concentration (MIC) values were determined by broth microdilution or agar dilution in accordance with guidelines from the Clinical and Laboratory Standards Institute (CLSI; (1) “Methods for Dilution Antimicrobial Susceptibility Tests for Bacteria That Grow Aerobically; Approved Standard; 11th ed.” CLSI standard M07-A11, 2018; (2) “Performance Standards for Antimicrobial Susceptibility Testing; Twenty-Eighth Informational Supplement,” CLSI document M100-S28, 2018; and (3) “Methods for Antimicrobial Susceptibility Testing of Anaerobic Bacteria; Approved Standard—Eighth Edition,” CLSI document M11-A8, 2012).
(§2) Tested aerobically by broth microdilution: • Escherichia coli, n=50 • Klebsiella spp., n=50 • Pseudomonas aeruginosa, n=50 • Streptococcus spp., n=50 • Staphylococcus aureus, n=50 • Enterococcus faecalis, n=50 • Enterobacter aerogenes, n=50 • Proteus mirabilis, n=50
(§3) Broth microdilution testing of aerobic bacteria was conducted in cation-adjusted Mueller Hinton broth (MHBII). For testing streptococci, lysed horse blood (LHB) was added to MHBII broth at a final concentration of 3%. Where LHB was used, it was added after filtering.
(§4) Broth microdilution susceptibility testing in 96-well microplates was conducted in accordance with CLSI methods (1) and (2). Automated liquid handlers were used to conduct serial dilutions and liquid transfers, including the Multidrop 384 (Labsystems, Helsinki, Finland), Biomek 2000, and the Biomek FX (Beckman Coulter, Fullerton, Calif.). All wells in columns 2 through 12 of a standard 96-well microdilution plate (Costar 3795) were filled with 150 μL of the appropriate diluent. Then, 300 μL of the test agents were added to the wells of column 1 of the plates at 100× the highest final concentration to be tested. Serial two-fold dilutions were made across the rows through column 11 using the Biomek 2000. The wells of column 12 contained no drug and served as the growth control wells. This plate served as the “mother plate” from which MIC assay plates or “daughter plates” were made.
(§5) The daughter plates were loaded with 190 μL per well of the appropriate medium using the Multidrop 384. The daughter plates were created using the Biomek FX which transferred 2 μL of drug solution from each well of a mother plate to each corresponding well of the daughter plate in a single step. A standardized inoculum of each test organism was prepared per CLSI methods (1) to equal a 0.5 McFarland standard, followed by a dilution of 1:20 for aerobes and 1:10 for anaerobes. The plates were then inoculated with 10 μL of the diluted inoculum using the Biomek 2000 from low to high drug concentration, resulting in a final concentration of approximately 5×10^5 CFU/mL per well. An un-inoculated plate was incubated in parallel for each medium for the purpose of assessing solubility of the drug in the test media.
(§6) Inoculated plates were stacked 3 or 4 high, covered with a sterile lid on the top plate, placed into boxes with CO2 planchets (streptococci) or plastic bags (all other isolates). Plates were incubated at 35° C. for 16-24 hr in ambient air for aerobes or for 42-48 hr in the anaerobic environment of the Bactron II anaerobe chamber (Sheldon Manufacturing Co.; Cornelius, Oreg.). Following incubation, the microplates were removed from the incubator and viewed from the bottom using a plate viewer. The MIC values were read and recorded as the lowest concentration of drug that inhibited visible growth of the organism as per CLSI methods (1) and (2).

Staphylococcus aureus = test: Broth microdilution MIC, 50 clinical isolates (28 MRSA)
Experimental: as §1, §2, §3, §4, §5, §6

[1] = tested on: Staphylococcus aureus clinical isolates; test: MIC distribution against clinical isolates; conditions: 50 S. aureus isolates
From the text: (§7) As used herein, “minimum inhibitory concentration” or “MIC” refers to the lowest concentration of an antimicrobial agent, for example, an antimicrobial agent as described herein, required to inhibit the growth of an organism.
(§8) Many susceptibility testing methods are known in the art and can be used as described herein (see, e.g., Jorgensen and Ferraro (2009) Clinical Infectious Diseases 49:1749-1755; and Maurer et al. (2017) Infectious Disease Reports 9:6839; the entire contents of each of the foregoing are incorporated herein by reference). For example, antimicrobial susceptibility can be determined using conventional culture based methods such as the broth or agar dilution test. In these dilution tests, the bacterial isolate of interest is inoculated onto different media that include serial dilutions of an antimicrobial agent, and incubated under appropriate conditions (e.g., overnight at 37° C.) to allow for growth to occur. Following the incubation period, the media is examined to determine bacterial growth. The lowest concentration of antibiotic that prevents growth represents the minimal inhibitory concentration (MIC). Broth dilution tests can be miniaturized and mechanized allowing for reproducibility and high throughput.

[2] = tested on: Enterococcus faecalis clinical isolates; test: MIC distribution against clinical isolates; conditions: 50 E. faecalis isolates
From the text: as §7, §8

Compound: Cc1onc(-c2ccccc2)c1C(=O)N[C@@H]1C(=O)N2[C@@H]1SC(C)(C)[C@@H]2C(=O)O [oxacillin, Oxacillin]
- Mode (Enterococcus faecalis): >16 µg/mL
- MIC50 (Enterococcus faecalis; Enterococcus faecalis, read-out: MIC50): 16 mg/L (≈ 39.9 µM)
- MIC90 (Enterococcus faecalis; Enterococcus faecalis, read-out: MIC90): > 16 mg/L
- % R (Staphylococcus aureus): 56%
- % S (Staphylococcus aureus): 44%
- Mode (Staphylococcus aureus): >16 µg/mL
- MIC50 (Staphylococcus aureus; Staphylococcus aureus, read-out: MIC50): 8 mg/L (≈ 19.9 µM)
- MIC90 (Staphylococcus aureus; Staphylococcus aureus, read-out: MIC90): > 16 mg/L
- Cumulative percentage of isolates inhibited at MIC ([1]; MIC 0.5 μg/mL): 28.0%
- Number of test isolates at MIC ([1]; MIC 0.5 μg/mL): 10
- Cumulative percentage of isolates inhibited at MIC ([1]; MIC 1 μg/mL): 42.0%
- Number of test isolates at MIC ([1]; MIC 1 μg/mL): 7
- Cumulative percentage of isolates inhibited at MIC ([1]; MIC 2 μg/mL): 44.0%
- Number of test isolates at MIC ([1]; MIC 2 μg/mL): 1
- Cumulative percentage of isolates inhibited at MIC ([1]; MIC 4 μg/mL): 48.0%
- Number of test isolates at MIC ([1]; MIC 4 μg/mL): 2
- Cumulative percentage of isolates inhibited at MIC ([1]; MIC 8 μg/mL): 50.0%
- Number of test isolates at MIC ([1]; MIC 8 μg/mL): 1
- Cumulative percentage of isolates inhibited at MIC ([1]; MIC >16 μg/mL): 100.0%
- Number of test isolates at MIC ([1]; MIC >16 μg/mL): 25
- Cumulative percentage of isolates inhibited at MIC ([1]; MIC […]): 8.0%
- Number of test isolates at MIC ([1]; MIC […]): 4
- Cumulative percentage of isolates inhibited at MIC ([2]; MIC 2 μg/mL): 2.0%
- Number of test isolates at MIC ([2]; MIC 2 μg/mL): 1
- Cumulative percentage of isolates inhibited at MIC ([2]; MIC 8 μg/mL): 16.0%
- Number of test isolates at MIC ([2]; MIC 8 μg/mL): 7
- Cumulative percentage of isolates inhibited at MIC ([2]; MIC 16 μg/mL): 54.0%
- Number of test isolates at MIC ([2]; MIC 16 μg/mL): 19
- Cumulative percentage of isolates inhibited at MIC ([2]; MIC >16 μg/mL): 100.0%
- Number of test isolates at MIC ([2]; MIC >16 μg/mL): 23
